Test results taken from ChEMBL document CHEMBL1201862, “PubChem BioAssay data set” (2004).
Activity calls are given as the source filed them.

Legend:
Steroidogenic factor 1 = Steroidogenic factor 1 (Homo sapiens, UniProt Q13285); assay: Counterscreen for inverse agonists of the liver receptor homolog-1 (LRH-1; NR5A2): Luminescence-based cell-based high throughput dose response assay to identify inverse agonists of the Steroidogenic Factor 1 Nuclear Receptor (SF1; NR5A1).; type: functional
[1] = nonselective StAR promoter luciferase inhibitors – cell-based, luminescence, luciferase reporter, counter-screen for LRH-1 inverse agonist project, dose response (AID 651969); type: functional
[2] = target: Nuclear receptor subfamily 5 group A member 2 (Homo sapiens, UniProt O00482); type: functional, cell-based;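 further: HEK293T cells transfected with LRH-1 and a StAR promoter luciferase reporter; potency for inhibitors that lower LRH-1 driven reporter light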
Nuclear receptor subfamily 5 group A member 2, sequence (O00482 whole entry): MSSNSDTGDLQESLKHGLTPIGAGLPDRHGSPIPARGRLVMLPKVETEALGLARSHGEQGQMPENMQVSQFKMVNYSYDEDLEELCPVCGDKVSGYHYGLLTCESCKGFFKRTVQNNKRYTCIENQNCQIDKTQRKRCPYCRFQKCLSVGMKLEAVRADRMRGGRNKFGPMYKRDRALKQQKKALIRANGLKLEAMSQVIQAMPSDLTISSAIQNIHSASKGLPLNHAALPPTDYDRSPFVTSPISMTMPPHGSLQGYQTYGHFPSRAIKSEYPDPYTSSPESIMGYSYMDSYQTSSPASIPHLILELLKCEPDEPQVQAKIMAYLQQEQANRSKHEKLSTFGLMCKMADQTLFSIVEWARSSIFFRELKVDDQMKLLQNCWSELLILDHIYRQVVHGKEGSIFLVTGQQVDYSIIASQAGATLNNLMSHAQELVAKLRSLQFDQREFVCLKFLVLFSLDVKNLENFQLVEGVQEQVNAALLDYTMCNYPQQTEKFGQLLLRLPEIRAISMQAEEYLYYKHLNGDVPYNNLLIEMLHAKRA

[3] = target: T1, Low molecular weight phosphotyrosine protein phosphatase (Homo sapiens, UniProt P24666); type: functional; details: read-out: IC50_Mean
T1 sequence (P24666 whole entry): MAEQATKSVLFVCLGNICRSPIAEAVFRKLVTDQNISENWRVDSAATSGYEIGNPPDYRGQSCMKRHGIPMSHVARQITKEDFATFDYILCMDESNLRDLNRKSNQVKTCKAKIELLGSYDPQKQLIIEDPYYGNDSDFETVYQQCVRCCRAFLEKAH

[4] = Counterscreen for activators of the function of SWI/SNF related, matrix associated, actin dependent regulator of chromatin, subfamily a, member 2 (SMARCA2, BRM): Luminescence-based cell-based high throughput dose response assay to identify non-selective compounds using the VP16 reporter assay.; type: functional
[5] = target: T2, DNA repair and recombination protein RAD54-like (Homo sapiens, UniProt Q92698); assay: RAD54 Holliday junction migration blockers – biochemical, fluorescence, cherry-picked samples, dose series, confirmation (AID 651657); type: functional
T2 sequence (Q92698 whole entry): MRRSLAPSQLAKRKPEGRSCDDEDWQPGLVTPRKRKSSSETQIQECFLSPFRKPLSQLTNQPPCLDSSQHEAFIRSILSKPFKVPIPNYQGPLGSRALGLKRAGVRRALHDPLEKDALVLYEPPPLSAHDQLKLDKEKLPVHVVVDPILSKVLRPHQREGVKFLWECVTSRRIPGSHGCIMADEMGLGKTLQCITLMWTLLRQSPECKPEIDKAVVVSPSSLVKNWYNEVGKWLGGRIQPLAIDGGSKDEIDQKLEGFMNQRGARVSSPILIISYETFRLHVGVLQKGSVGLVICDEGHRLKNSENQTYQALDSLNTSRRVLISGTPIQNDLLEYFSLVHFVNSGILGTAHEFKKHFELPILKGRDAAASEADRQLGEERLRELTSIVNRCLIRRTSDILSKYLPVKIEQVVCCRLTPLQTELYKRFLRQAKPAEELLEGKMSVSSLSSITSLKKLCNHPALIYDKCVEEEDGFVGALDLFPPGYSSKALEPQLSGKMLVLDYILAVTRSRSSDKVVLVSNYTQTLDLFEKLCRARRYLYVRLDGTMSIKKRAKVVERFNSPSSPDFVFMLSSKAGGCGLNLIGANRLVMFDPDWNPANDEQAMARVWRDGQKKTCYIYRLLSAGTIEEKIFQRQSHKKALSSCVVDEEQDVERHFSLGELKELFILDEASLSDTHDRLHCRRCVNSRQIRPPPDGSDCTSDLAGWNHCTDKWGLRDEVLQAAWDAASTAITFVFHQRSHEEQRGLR

[6] = target: SWI/SNF-related matrix-associated actin-dependent regulator of chromatin subfamily A member 2 (Homo sapiens, UniProt P51531); assay: Luminescence-based cell-based high throughput dose response assay to identify activators of the function of SWI/SNF related, matrix associated, actin dependent regulator of chromatin, subfamily a, member 2 (SMARCA2, BRM).; type: functional
[7] = target: T3, DNA repair protein RAD52 homolog (Homo sapiens, UniProt P43351); type: functional, biochemical
T3 sequence (P43351 whole entry): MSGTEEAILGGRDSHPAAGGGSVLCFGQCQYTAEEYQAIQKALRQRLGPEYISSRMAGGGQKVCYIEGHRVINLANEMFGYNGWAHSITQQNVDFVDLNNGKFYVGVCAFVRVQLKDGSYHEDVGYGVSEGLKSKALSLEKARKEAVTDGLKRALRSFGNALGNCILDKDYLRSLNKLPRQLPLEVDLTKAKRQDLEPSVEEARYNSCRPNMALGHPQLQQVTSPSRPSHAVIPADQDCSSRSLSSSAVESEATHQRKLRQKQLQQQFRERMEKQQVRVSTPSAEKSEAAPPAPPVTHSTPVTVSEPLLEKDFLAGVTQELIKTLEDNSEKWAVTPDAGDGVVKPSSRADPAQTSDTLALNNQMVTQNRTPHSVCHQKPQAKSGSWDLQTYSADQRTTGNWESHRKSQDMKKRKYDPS

[8] = target: Tyrosine-protein phosphatase non-receptor type 22 (Homo sapiens, UniProt Q9Y2R2); assay: PTPN22 enzyme inhibitors – biochemical, fluorescence, LYP catalytic domain, selectivity assay for LMPTP inhibitor project, dose response (AID 652006); type: functional; details: read-out: IC50_Mean
Tyrosine-protein phosphatase non-receptor type 22, sequence (Q9Y2R2 whole entry, the tested form may be a part): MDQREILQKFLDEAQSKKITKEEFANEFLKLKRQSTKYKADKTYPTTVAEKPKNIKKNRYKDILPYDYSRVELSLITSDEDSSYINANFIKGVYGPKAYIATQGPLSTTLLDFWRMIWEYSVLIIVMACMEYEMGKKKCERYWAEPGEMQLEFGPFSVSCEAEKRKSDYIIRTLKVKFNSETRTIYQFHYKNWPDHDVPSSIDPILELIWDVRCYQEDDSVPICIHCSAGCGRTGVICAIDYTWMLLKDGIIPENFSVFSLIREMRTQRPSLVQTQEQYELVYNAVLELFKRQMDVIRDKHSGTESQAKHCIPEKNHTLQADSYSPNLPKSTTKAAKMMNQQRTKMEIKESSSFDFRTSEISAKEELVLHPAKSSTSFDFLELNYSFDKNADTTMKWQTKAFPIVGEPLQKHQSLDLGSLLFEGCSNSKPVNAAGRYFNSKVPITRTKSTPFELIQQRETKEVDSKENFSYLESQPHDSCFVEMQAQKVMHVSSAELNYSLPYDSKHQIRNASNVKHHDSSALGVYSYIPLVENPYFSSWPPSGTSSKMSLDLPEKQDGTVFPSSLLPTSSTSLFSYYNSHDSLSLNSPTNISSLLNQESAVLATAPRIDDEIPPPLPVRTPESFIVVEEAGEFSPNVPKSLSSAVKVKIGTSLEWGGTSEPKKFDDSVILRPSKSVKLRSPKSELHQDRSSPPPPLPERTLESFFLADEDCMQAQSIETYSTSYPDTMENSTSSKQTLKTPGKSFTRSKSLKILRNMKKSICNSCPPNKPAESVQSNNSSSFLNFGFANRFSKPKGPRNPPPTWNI

[9] = target: T1, Low molecular weight phosphotyrosine protein phosphatase; type: functional; details: read-out: IC50_Mean; remark: listed apart in the source
[10] = Luminescence Cell-Based Dose Response HTS to Identify Inhibitors of 5'UTR Stem-Loop Driven Prion Protein mRNA Translation in H4 Neuroglioblastoma Cells. [Related pubchem assays: 1827 (Project Summary), 1813 (Primary HTS)]; type: functional
[11] = non-specific 3'UTR reporter inhibition in Clone20-Shn3RL – cell-based, Renilla luciferase, cherry-picked, counter-screen for Shn3 inhibitor project, dose response (AID 624133); type: functional
[12] = alpha-synuclein stem-loop luciferase translation blockers – H4 neuroglioma cells, luminescence, confirmation (AID 1988); type: functional, cell-based
[13] = reduction of Shn3 3'UTR-driven luciferase in osteoblasts – cell-based, Clone20 osteoblasts, firefly luciferase, cherry-picked, dose response (AID 624132); type: functional;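 further: firefly luciferase luminescence from reporter carrying the Shn3 3'UTR in osteoblasts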
[14] = loss of viability in HepG2 cells – cell-based, CellTiter-Glo, cherry-picked, cytotoxicity control for Shn3 inhibitor project, dose response (AID 624134); type: functional
[15] = luciferase reporter signal suppression in cells – H4 neuroglioma cells, luminescence, dose response (AID 1990); type: functional, cell-based
Vero = assay: inhibition of WNV-induced cytopathic effect – cell-based, CPE readout (AID 1621); type: functional; details: Chlorocebus sabaeus
[16] = target: Photoreceptor-specific nuclear receptor (Homo sapiens, UniProt Q9Y5X4); type: functional, cell-based;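 further: CHO-S cells with Gal4-NCOR and VP16-NR2E3 two-hybrid luciferase reporter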
Photoreceptor-specific nuclear receptor, sequence (Q9Y5X4 whole entry, the tested form may be a part): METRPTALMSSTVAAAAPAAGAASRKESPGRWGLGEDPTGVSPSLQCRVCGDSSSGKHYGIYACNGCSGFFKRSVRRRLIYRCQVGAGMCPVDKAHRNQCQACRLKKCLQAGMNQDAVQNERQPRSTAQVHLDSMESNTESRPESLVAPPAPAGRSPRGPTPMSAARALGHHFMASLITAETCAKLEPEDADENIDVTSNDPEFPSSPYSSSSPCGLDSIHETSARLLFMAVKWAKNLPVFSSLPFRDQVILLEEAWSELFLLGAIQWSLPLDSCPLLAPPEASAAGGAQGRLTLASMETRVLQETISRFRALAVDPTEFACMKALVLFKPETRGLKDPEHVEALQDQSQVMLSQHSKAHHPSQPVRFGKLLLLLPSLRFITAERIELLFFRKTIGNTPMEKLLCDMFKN

[17] = viability of PTEN-deleted HCT116 cells – cell-based, HCT116 PTEN knockout, dose response (AID 1047); type: functional;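 further: HCT116 colon tumor cells with PTEN knocked out; cells exposed to compound for 60 hours before readout; potency for loss of cell viability measured by luminescence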
[18] = tested on: Streptococcus sp. 'group A'; assay: Streptococcus pyogenes SK(-)GAS viability under kanamycin – luminescence, BacTiterGlo, confirmation, counter-screen for streptokinase expression inhibitor project, dose response (AID 1900); type: functional, organism-based
[19] = Trypanosoma cruzi growth suppression in host cells – NIH3T3 host cells, beta-gal luminescence, confirmation (AID 2044); type: functional, cell-based;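 further: intracellular parasites grown in NIH/3T3 mouse fibroblasts as host cells; luminescent beta-galactosidase reporter signal from transgenic T. cruzi replicating inside host cells; inhibitors lower the luminescence signal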
[20] = target: T4, Methionyl-tRNA synthetase, putative (Trypanosoma brucei brucei, UniProt Q38C91); type: functional, Trypanosoma brucei brucei strain 927/4 GUTat10.1
T4 sequence (Q38C91 whole entry): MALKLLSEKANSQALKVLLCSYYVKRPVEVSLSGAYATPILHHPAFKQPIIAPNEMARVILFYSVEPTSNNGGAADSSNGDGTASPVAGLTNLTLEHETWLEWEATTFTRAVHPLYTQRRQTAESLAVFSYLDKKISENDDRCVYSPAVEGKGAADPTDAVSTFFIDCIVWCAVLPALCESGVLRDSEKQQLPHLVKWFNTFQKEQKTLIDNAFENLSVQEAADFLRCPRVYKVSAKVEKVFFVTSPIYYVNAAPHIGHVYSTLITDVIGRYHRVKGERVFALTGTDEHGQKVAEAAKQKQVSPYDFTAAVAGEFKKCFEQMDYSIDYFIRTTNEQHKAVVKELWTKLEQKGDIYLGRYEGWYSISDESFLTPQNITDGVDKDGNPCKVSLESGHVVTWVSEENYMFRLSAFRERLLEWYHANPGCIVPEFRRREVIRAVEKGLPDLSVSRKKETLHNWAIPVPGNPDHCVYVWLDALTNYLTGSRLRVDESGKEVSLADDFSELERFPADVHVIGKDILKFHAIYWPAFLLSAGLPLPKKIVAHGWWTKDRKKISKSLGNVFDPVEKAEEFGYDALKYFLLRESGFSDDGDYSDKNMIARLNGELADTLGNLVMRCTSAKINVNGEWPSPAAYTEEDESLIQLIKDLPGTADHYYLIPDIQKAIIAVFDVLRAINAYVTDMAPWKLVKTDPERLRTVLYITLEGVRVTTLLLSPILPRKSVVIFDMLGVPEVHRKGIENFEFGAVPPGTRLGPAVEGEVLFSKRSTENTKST

Cytochrome P450 1A2 = target: T5, Cytochrome P450 1A2 (Homo sapiens, UniProt P05177);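 further: PubChem cytochrome P450 panel assay, CYP1A2 panel member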
T5 sequence (P05177 whole entry): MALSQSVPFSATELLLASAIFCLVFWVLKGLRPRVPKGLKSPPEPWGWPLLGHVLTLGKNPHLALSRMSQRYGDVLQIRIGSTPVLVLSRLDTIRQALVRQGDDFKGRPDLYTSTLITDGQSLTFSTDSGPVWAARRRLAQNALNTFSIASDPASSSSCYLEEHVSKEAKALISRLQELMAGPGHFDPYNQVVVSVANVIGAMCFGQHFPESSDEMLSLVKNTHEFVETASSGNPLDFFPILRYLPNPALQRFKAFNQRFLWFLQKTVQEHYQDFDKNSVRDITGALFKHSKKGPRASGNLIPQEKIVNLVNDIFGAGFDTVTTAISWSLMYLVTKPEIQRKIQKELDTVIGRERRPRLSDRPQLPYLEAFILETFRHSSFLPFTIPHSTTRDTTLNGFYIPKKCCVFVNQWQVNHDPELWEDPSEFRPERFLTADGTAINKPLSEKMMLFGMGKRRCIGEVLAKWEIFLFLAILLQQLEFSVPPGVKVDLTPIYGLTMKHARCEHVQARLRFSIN

[21] = viability of HCT116 lacking mutant beta-catenin – cell-based, human colon tumor, dose response (AID 1045); type: functional;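 further: HCT116 colon tumor cells with beta catenin knocked out; cells exposed to compound for 60 hours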
[22] = Counterscreen for inhibitors of Trypanosoma brucei methionyl tRNA synthetase (MetRS): Luminescence-based cell-based high throughput dose response assay to identify compounds that are cytotoxic to Jurkat human T lymphocyte cells.; type: functional
Streptococcus = assay: GAS UMAA2166 growth inhibition – luminescence, BacTiterGlo, counter-screen for streptokinase expression inhibitor project, dose response (AID 1915); type: functional, organism-based;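 further: potency for reduction of bacterial viability or growth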
[23] = target: T4, Methionyl-tRNA synthetase, putative; type: functional, Trypanosoma brucei brucei strain 927/4 GUTat10.1; remark: listed apart in the source
[24] = target: T6, Calpain-2 catalytic subunit (Sus scrofa, UniProt P43367); assay: m-calpain protease blockers, concentration series – biochemical, fluorogenic peptide substrate, dose response (AID 1420); type: functional
T6 sequence (P43367 whole entry): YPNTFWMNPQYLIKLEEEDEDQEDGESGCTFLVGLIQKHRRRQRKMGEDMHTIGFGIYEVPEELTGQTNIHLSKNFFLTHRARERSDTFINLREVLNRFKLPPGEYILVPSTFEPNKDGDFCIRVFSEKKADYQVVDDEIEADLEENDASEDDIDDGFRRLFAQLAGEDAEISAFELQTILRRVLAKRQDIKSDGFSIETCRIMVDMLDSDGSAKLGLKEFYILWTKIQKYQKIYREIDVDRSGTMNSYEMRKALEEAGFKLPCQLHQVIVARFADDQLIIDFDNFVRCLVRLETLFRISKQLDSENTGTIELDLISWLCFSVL

Streptokinase A = target: T7, Streptokinase A (Streptococcus pyogenes serotype M1, UniProt P10520); assay: viability-normalized secreted streptokinase activity reduction – plasminogen activation absorbance, OD405, dose response (AID 1914); type: functional, Streptococcus pyogenes M1 GAS;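 further: secreted streptokinase activity via plasminogen activation per viability signal from cell pellet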
T7 sequence (P10520 whole entry): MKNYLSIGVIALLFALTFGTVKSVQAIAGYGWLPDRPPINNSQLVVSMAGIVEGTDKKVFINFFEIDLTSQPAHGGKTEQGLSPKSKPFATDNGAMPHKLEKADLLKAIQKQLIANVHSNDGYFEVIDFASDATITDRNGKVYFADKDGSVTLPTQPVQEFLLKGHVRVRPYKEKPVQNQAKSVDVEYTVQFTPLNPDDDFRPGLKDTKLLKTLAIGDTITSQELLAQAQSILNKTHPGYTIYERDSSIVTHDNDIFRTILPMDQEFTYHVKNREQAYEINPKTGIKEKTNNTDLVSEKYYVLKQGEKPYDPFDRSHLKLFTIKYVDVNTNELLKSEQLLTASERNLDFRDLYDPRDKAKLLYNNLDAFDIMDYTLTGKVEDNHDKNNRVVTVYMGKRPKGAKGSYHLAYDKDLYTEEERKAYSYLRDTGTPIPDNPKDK

[25] = NIH3T3 cell viability loss – ATP luminescence, mouse fibroblasts, counter-screen, dose response (AID 2010); type: functional, cell-based;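 further: cells exposed to compound for about 90 hours before reading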
[26] = target: ADP-ribosylation factor GTPase-activating protein 1 (Rattus norvegicus, UniProt Q62848); assay: Fluorescence polarization-based biochemical high throughput dose response screening assay to identify inhibitors of ADP-ribosylation factor GTPase activating protein 1 (ARFGAP1).; type: functional
ADP-ribosylation factor GTPase-activating protein 1, sequence (Q62848 whole entry, the tested form may be a part): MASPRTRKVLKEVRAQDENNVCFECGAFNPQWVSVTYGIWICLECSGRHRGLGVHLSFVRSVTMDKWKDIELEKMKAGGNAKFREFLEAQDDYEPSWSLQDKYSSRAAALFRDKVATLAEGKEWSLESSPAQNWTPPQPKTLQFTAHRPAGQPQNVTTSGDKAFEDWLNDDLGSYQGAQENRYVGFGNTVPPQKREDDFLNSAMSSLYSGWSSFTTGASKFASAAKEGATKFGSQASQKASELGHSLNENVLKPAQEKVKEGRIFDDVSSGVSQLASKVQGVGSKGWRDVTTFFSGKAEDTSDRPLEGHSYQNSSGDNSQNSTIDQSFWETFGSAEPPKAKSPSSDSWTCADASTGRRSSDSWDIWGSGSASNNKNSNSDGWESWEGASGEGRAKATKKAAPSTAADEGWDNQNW

[27] = target: T8, Sentrin-specific protease 1 (Homo sapiens, UniProt Q9P0U3); assay: SENP1 catalytic domain blockers, concentration series – biochemical, kinetic FRET, dose response (AID 651697); type: functional; details: read-out: IC50_Mean
T8 sequence (Q9P0U3 whole entry, the tested form may be a part): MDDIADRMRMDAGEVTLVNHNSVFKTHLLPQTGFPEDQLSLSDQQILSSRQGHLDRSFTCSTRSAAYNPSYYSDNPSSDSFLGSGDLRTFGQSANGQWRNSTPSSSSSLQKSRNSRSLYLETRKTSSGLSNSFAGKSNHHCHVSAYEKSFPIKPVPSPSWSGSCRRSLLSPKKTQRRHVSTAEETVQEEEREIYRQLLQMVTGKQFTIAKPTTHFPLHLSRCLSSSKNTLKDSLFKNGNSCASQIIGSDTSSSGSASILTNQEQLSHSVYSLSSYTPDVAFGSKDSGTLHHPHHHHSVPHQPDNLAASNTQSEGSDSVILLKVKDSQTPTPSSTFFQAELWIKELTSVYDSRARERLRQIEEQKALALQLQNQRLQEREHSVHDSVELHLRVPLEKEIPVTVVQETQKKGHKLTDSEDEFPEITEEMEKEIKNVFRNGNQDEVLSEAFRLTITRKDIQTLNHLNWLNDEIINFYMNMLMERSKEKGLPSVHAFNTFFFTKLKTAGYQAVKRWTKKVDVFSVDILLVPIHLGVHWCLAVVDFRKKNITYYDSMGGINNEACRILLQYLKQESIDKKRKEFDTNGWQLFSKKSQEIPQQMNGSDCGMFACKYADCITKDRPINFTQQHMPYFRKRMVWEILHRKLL

[28] = target: T8, Sentrin-specific protease 1; assay: Dose response confirmation of small molecule inhibitors of the catalytic domain of the SUMO protease, SENP1 in a FRET assay.; type: functional; details: read-out: IC50_Mean
[29] = target: T9, Endoribonuclease toxin MazF (Escherichia coli K-12, UniProt P0AE70); assay: activation of MazEF endoribonuclease cleavage – biochemical, fluorescence, single-stranded RNA substrate, uHTS hits, dose response (AID 588481); type: functional
T9 sequence (P0AE70 whole entry): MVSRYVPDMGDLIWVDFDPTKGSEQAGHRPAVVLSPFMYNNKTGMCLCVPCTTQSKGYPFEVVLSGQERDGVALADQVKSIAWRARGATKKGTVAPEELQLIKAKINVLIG

[30] = target: T9, Endoribonuclease toxin MazF; assay: substrate-only fluorescence increase artefacts – biochemical, single-stranded RNase substrate, counter-screen for MazEF activator project, dose response (AID 588502); type: functional

Steroidogenic factor 1, sequence (Q13285 whole entry): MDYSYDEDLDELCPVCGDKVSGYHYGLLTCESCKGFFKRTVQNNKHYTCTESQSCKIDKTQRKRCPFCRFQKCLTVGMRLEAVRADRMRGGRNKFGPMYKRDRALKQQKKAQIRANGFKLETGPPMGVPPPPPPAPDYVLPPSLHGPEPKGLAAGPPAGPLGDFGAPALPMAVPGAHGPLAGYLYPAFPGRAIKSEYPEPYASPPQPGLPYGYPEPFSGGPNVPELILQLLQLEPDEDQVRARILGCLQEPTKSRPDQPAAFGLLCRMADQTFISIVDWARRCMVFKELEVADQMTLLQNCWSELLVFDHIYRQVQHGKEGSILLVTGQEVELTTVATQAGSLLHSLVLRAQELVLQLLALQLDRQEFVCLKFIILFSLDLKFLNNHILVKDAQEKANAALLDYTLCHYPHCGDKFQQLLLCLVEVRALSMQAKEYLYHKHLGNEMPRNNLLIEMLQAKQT

CC1(C(=O)NCc2ccc3c(c2)OCO3)CCN1C(=O)Cc1ccc(Cl)cc1Cl (stereo not given)
IC50 (Steroidogenic factor 1): 3.32 µM (active)
IC50 [1]: 35.9 µM (inactive)
IC50 [2]: 7.36 µM (active)

Cc1nccc2cc3[nH]c4ccccc4c3cc12
IC50 [3]: 2.59 µM (active)
EC50 [4]: > 91.2 µM (inactive)
AC50 [5]: 2.49 µM (active)
EC50 [6]: 5.87 µM (active)
AC50 [7]: 1.96 µM (active)
IC50 [8]: 52.5 µM (inactive)
IC50 [9]: 3.18 µM (active)

COc1cc2c(OC(C)=O)c3c(c(-c4ccc5c(c4)OCO5)c2cc1OC)C(=O)OC3
EC50 [10]: 14.4 µM (active)
AC50 [11]: 24.5 µM (active)
EC50 [12]: 4.4 µM (active)
AC50 [13]: 1.8 µM (active)
AC50 [14]: 1.38 µM (active)
EC50 [15]: 8.65 µM (active)
IC50 (Vero): 21.1 µM (active)
IC50 [16]: 1.83 µM (active)

CCN1C(=O)C(CC(=O)Nc2ccc(Br)cc2)N(CCCc2ccccc2)C1=S (stereo not given)
EC50 [17]: 15.3 µM (active)
EC50 [18]: 3.15 µM (active)
EC50 [19]: 2.31 µM (active)
IC50 [20]: 6.6 µM (active)
AC50 (Cytochrome P450 1A2): 14.1 µM (inconclusive)
EC50 [21]: 16.1 µM (active)
IC50 [22]: 41.5 µM (inactive)
EC50 (Streptococcus): 6.98 µM (active)
IC50 [23]: 5.93 µM (active)
IC50 [24]: 5.99 µM (not active)
EC50 (Streptokinase A): 1.98 µM (active)
EC50 [25]: > 60 µM (not active)

Cc1ccc2nc(SCC(=O)Nc3cccc(F)c3)nc(=O)n2c1
IC50 [26]: 44.9 µM (inactive)

CN(N=Cc1cccc2cccnc12)c1ccc([N+](=O)[O-])cc1[N+](=O)[O-]
IC50 [27]: 8.19 µM (active)
IC50 [28]: 4.08 µM (active)
EC50 [29]: > 99 µM (inactive)
EC50 [30]: 3.55 µM (active)
